Experimental data from publication PMC5268738, “A sequential multi-target Mps1 phosphorylation cascade promotes spindle checkpoint signaling” (eLife, 2017).

Assays:
[1] = system: APC/C^Cdc20; assay: APC/C^Cdc20 inhibition by MCC components (securin ubiquitination assay); type: biochemical, Xenopus APC/C, human Cdc20; settings: Bub1–Mad1 mixture, Cdc20^ΔN60, Mad2^Mono, BubR1^N; reversine 10 μM where used
[2] = system: Bub1 S459 phosphorylation in HeLa cells; settings: nocodazole and MG132; reversine 1 µM
Procedure: HeLa Tet-On cells were initially purchased from Clontech (Mountain View, CA), and were cultured in Dulbecco’s Modified Eagle Medium (DMEM, Invitrogen, Carlsbad, CA) supplemented with 10% fetal bovine serum and 2 mM L-glutamine. The cells were authenticated by genome sequencing and metaphase chromosome spread, and were routinely checked by 4',6-diamidino-2-phenylindole (DAPI) staining to ascertain that they were free of mycoplasma contamination. For G1/S synchronization, cells were treated with 2 mM thymidine (Sigma, St. Louis, MO) for 14–16 hr. For mitotic arrest, cells were treated with 330 nM or 1 µM nocodazole (Sigma) or 100 nM taxol (Sigma) for 12–14 hr. Other chemicals used in this study were: RO3306 (Sigma) at 20 µM, BI 2536 (Selleck Chemicals, Houston, TX) at 1 µM, MG132 (Selleck Chemicals) at 10 µM, okadaic acid (LC lab, Woburn, MA) at 500 nM, and reversine (Cayman Chemical, Ann Arbor, MI) at 1 µM.

[3] = system: N-terminal fragment of Cdc20 (residues 1–170, Cdc20^N); assay: in vitro pull-down of Mps1-treated Mad1^E–Mad2 by Cdc20^N beads; type: binding, human; settings: Ni^2+ beads with Cdc20^N170-His6; Mad1 pre-treated with kinase domain of Mps1; anti-Mad1 blot
Procedure: Expression of Cdc20-His6 proteins containing the N-terminal regions of Cdc20 was induced by 1 mM isopropyl β-D-1-thiogalactopyranoside (IPTG) at 37 °C for 6 h. Harvested pellets were lysed in denaturing lysis buffer (100 mM NaH2PO4, 10 mM Tris-HCl, pH 8.0, 8 M Urea), and incubated overnight by gentle rocking at room temperature. After centrifugation, the supernatants were incubated with pre-equilibrated Ni^2+-NTA beads (Qiagen). Protein-bound beads were washed with 15 volumes of denaturing wash buffer (100 mM NaH2PO4, 10 mM Tris-HCl, pH 6.3, 8 M Urea). The proteins were then eluted with denaturing elution buffer (100 mM NaH2PO4, 10 mM Tris-HCl, pH 4.5, 8 M Urea). The eluted proteins were then dialyzed into the storage buffer (50 mM Tris, pH 8.0, 200 mM NaCl, 5% glycerol, 1 mM β-mercaptoethanol). […]
For kinase assays, 1 μM Cdc20^ΔN60, 40 μM Mad1^E–Mad2, or 400 nM Bub1^ΔK–Bub3 was incubated with 40 nM Bub1, 500 nM Mps1, and/or 50 nM Cdk1–Cyclin B1 at room temperature for 30 min in the kinase buffer (25 mM Tris-HCl, pH 7.7, 100 mM NaCl, 10 mM MgCl2, 5 mM NaF, 20 mM β-glycerophosphate, 0.1 mM Na3VO4 and 1 mM DTT) supplemented with 1 mM ATP. The reaction mixtures were stopped with the appropriate kinase inhibitors for further protein-binding assays, or quenched with the SDS loading buffer and analyzed by Coomassie blue staining or Western blotting. […]

SMILES: c1nc2nc(Nc3ccc(N4CCOCC4)cc3)nc(NC3CCCCC3)c2[nH]1 [reversine, reference compound]
- APC/C^Cdc20 inhibition by the MCC mixture with Bub1–Mad1 mixture (in words) [1]: greatly weakened APC/C^Cdc20 inhibition by the MCC mixture
- Bub1 S459 phosphorylation in mitosis (in words) [2]: reduced
- binding of Mps1-treated Mad1^E–Mad2 to Cdc20^N (in words) [3]: greatly reduced this interaction
